Laboratory results: patent publication US12716889B2, “Microfluidic-based device for in vivo wound infection model and uses thereof” (The Hong Kong Polytechnic University, priority 2021, dated 2026)

Test system: P. aeruginosa (PAO1) biofilm
Experiment: Viable cell counts (CFU) from biofilm on infected tail wound of Medaka fish in the MicroFish device
Format: in vivo, Pseudomonas aeruginosa
Settings: ciprofloxacin monotherapy at 0, 0.05, 1, 5, 10 μg ml^−1 added to fish-microbe co-cultures; FIG. 5E
Description: After harvesting the tails from euthanized animals after bacterial infection, the tissues were resuspended in 100 μl sterilized 0.9% (w/v) NaCl saline and ground manually by pellet pestle in 1.5-ml-microcentrifuge tubes (JET BIOFIL, China) until homogenization. The homogenized samples were diluted serially in 0.9% NaCl and then spread on centrimide agar (selective only for Pseudomonad growth) (Sigma-Aldrich, Germany). After incubation at 37° C. for 16 hrs, the colonies grown on the plates were enumerated. The CFU ml^−1 was tabulated by colony number×dilution factor[…]. Experiments were performed in triplicates, and the results are shown as mean±S.D.

Q: Which “biofilm viability (viable cell counts, CFU)” value does the source give for `O=C(O)c1cn(C2CC2)c2cc(N3CCNCC3)c(F)cc2c1=O` [ciprofloxacin] here?
A: Its value is “lower biofilm viability”.
